# From patent US10604524B2, “Pyrropyrimidine compounds as MNKs inhibitors” (LIFEARC, priority 2015, dated 2020)
# What was measured:
# Full-length human MNK1 = Full-length human MNK1 (Homo sapiens, UniProt Q9BUB5, T385D); test: MNK1 biochemical IC50 assay (Caliper mobility shift)
# Full-length human MNK2 = Full-length human MNK2 (Homo sapiens, UniProt Q9HBH9, T379D); test: MNK2 biochemical IC50 assay (Caliper mobility shift)
# [1] = system: phosphorylation of eIF4E at ser209 in MV4.11 cell line; test: cells; type: cell-based; settings: Homo sapiens; MV4.11 cells, 1.5 hr compound incubation, average of at least 2 independent experiments; read-out: plc50 elF4E (converted)
# Description: MNK activity in cells was measured by monitoring the phosphorylation of eIF4E at ser209, the known endogenous substrate of MNK1/2, in cell lysates. […] The assay detection is based on the formation of sandwich antibody complexes coupled to donor and acceptor beads. Excitation at 680 nm causes the transfer of a singlet oxygen species between donor and acceptor beads when they are in close proximity by binding to the analyte […], which results in the emission of light at 520-620 nm.
# Cells were then lysed and the Aphascreen Surefire protocol followed according to manufacturer's recommendations. 8 ul Acceptor beads (1:50 dilution in kit activation buffer) was added to lysate, shaken 150 rpm for 2 min and incubated for 1.5 hr at room temperature. 3 ul Donor beads (1:20 dilution in kit dilution buffer) were then added, shaken 150 rpm for 2 min and incubated for a further 1.5 hr at room temperature after which the plates were read on Pherastar FS using Alphascreen optic module.
# Data were normalised relative to untreated DMSO only controls and curves repeated in duplicate within experiments. Data reported are averages of at least 2 independent experiments.
# Full-length human MNK2, sequence (Q9HBH9 whole entry T379D): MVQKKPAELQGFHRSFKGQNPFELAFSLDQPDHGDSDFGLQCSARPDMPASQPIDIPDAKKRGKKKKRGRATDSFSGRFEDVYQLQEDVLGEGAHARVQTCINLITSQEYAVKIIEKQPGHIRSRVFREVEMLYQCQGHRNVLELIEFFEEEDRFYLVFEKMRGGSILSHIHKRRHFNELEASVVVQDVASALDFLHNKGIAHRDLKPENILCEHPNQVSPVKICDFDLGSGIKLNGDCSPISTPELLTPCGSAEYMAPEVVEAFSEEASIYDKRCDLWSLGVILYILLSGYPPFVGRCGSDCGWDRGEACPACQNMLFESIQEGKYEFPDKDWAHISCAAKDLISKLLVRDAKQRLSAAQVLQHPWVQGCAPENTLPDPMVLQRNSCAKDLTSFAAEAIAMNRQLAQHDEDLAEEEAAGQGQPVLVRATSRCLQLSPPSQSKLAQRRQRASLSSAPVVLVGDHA
# Full-length human MNK1, sequence (Q9BUB5 1-424 isoform Q9BUB5-2 T344D): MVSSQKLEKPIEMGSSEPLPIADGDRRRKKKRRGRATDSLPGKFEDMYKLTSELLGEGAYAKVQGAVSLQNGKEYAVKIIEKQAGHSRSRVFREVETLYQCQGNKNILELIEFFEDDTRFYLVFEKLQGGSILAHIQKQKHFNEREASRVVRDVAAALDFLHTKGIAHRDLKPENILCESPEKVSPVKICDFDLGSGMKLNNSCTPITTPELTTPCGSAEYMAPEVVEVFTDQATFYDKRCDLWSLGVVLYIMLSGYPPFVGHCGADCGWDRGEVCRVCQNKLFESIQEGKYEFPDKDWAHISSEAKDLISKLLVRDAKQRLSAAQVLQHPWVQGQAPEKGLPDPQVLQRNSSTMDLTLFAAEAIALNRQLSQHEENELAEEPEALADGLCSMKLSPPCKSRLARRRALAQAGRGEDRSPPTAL
Structure (SMILES),IC50 (Full-length human MNK1) [nM],IC50 (Full-length human MNK2) [nM],IC50 [1] [nM]
"Cn1ccc2ncnc(Nc3ccc(F)cc3OC3CCCC3)c21 [Example 25, N-[2-(cyclopentyloxy)-4-fluorophenyl]-5-methyl-5H-pyrrolo[3,2-d]pyrimidin-4-amine]",126,31.6,
"Cn1ccc2ncnc(Nc3ccc(F)cc3O[C@H]3CCCOC3)c21 [Example 19, N-[4-fluoro-2-[(3S)-tetrahydropyran-3-yl]oxy-phenyl]-5-methyl-pyrrolo[3,2-d]pyrimidin-4-amine]",501,126,
"Cn1ccc2ncnc(Nc3ccc4[nH]ncc4c3)c21 [Example 14, N-(1H-indazol-5-yl)-5-methyl-pyrrolo[3,2-d]pyrimidin-4-amine]",251,398,398
"Fc1ccc2c(c1)CCN2c1ncnc2cc[nH]c12 [Example 46, 4-(5-Fluoroindolin-1-yl)-5H-pyrrolo[3,2-d]pyrimidine]",39.8,31.6,
"CC(C)Oc1cc(C#N)ccc1Nc1ncnc2ccn(C)c12 [Example 7, 3-Isopropoxy-4-[(5-methylpyrrolo[3,2-d]pyrimidin-4-yl)amino]benzonitrile]",50.1,25.1,31.6
"Cn1ccc2ncnc(Nc3ccc(F)cc3OC(CF)CF)c21 [Example 11, N-[4-fluoro-2-[2-fluoro-1-(fluoromethyl)ethoxy]phenyl]-5-methyl-pyrrolo[3,2-d]pyrimidin-4-amine]",158,50.1,
"CC(C)Oc1cc(F)ccc1Nc1ncnc2c(Cl)c(C(=O)NCCCN(C)C)n(C)c12 [Example 43, 7-Chloro-N-[3-(dimethylamino)propyl]-4-{[4-fluoro-2-(propan-2-yloxy)phenyl]amino}-5-methyl-5H-pyrrolo[3,2-d]pyrimidine-6-carboxamide]",1260,1000,794
"CC(C)Oc1cc(F)ccc1Nc1ncnc2cc(C(=O)NCC3CCNCC3)n(C)c12 [Example 41, 4-{[4-Fluoro-2-(propan-2-yloxy)phonyl]amino}-5-methyl-N-(piperidin-4-ylmethyl)-5H-pyrrolo[3,2-d]pyrimidine-6-carboxamide]",39.8,39.8,
"CC(C)Oc1cc(F)ccc1Nc1ncnc2cc(C(=O)NCCN3CCNCC3)n(C)c12 [Example 42, 4-{[4-Fluoro-2-(propan-2-yloxy)phenyl]amino}-5-methyl-N-[2-(piperazin-1-yl)ethyl]-5H-pyrrolo[3,2-d]pyrimidine-6-carboxamide]",50.1,50.1,100
"CC(C)Oc1c(Nc2ncnc3ccn(C)c23)ccc(F)c1F [Example 32, N-(3,4-difluoro-2-isopropoxy-phenyl)-5-methyl-pyrrolo[3,2-d]pyrimidin-4-amine]",2000,1000,794
"CC(C)Oc1ncccc1Nc1ncnc2ccn(C)c12 [Example 29, N-(2-isopropoxy-3-pyridyl)-5-methyl-pyrrolo[3,2-d]pyrimidin-4-amine]",251,100,50.1
"Cn1ccc2ncnc(Nc3ccc(F)cc3OC3CCC3)c21 [Example 17, N-[2-(cyclobutoxy)-4-fluoro-phenyl]-5-methyl-pyrrolo[3,2-d]pyrimidin-4-amine]",200,79.4,31.6
"CC(C)Oc1nc(Cl)ccc1Nc1ncnc2ccn(C)c12 [Example 6, N-(6-chloro-2-isopropoxy-3-pyridyl)-5-methyl-pyrrolo[3,2-d]pyrimidin-4-amine]",251,63.1,63.1
"Cn1ccc2ncnc(Nc3ccc(F)cc3O[C@@H]3CCCOC3)c21 [Example 18, N-[4-fluoro-2-[(3R)-tetrahydropyran-3-yl]oxy-phenyl]-5-methyl-pyrrolo[3,2-d]pyrimidin-4-amine]",63.1,31.6,

# Second part, led by results:
IC50 (Full-length human MNK1) [nM],IC50 (Full-length human MNK2) [nM],Structure (SMILES),IC50 [1] [nM]
251,126,"Cn1ccc2ncnc(Nc3ccc(F)cc3O[C@@H]3CCOC3)c21 [Example 16, N-[4-fluoro-2-[(3R)-tetrahydrofuran-3-yl]oxy-phenyl]-5-methyl-pyrrolo[3,2-d]pyrimidin-4-amine]",79.4
1000,501,"CC(C)Oc1cc(F)ccc1Nc1ncnc2ccn(C(C)C)c12 [Example 3, N-(4-fluoro-2-isopropoxy-phenyl)-5-isopropyl-pyrrolo[3,2-d]pyrimidin-4-amine]",158
100,50.1,"CC(C)Oc1c(F)cccc1Nc1ncnc2ccn(C)c12 [Example 33, N-(3-fluoro-2-isopropoxy-phenyl)-5-methyl-pyrrolo[3,2-d]pyrimidin-4-amine]",25.1
398,251,"CCOc1ncccc1Nc1ncnc2ccn(C)c12 [Example 34, N-(2-ethoxy-3-pyridyl)-5-methyl-pyrrolo[3,2-d]pyrimidin-4-amine]",126
200,126,"CCOc1cc(F)ccc1Nc1ncnc2ccn(C)c12 [Example 30, N-(2-ethoxy-4-fluoro-phenyl)-5-methyl-pyrrolo[3,2-d]pyrimidin-4-amine]",63.1
316,158,"Cn1ccc2ncnc(Nc3ccc(F)cc3OCC(F)F)c21 [Example 31, N-[2-(2,2-difluoroethoxy)-4-fluoro-phenyl]-5-methyl-pyrrolo[3,2-d]pyrimidin-4-amine]",50.1
316,158,"Cn1ccc2ncnc(Nc3ccc(F)cc3OC3CCOCC3)c21 [Example 13, N-(4-fluoro-2-tetrahydropyran-4-yloxy-phenyl)-5-methyl-pyrrolo[3,2-d]pyrimidin-4-amine]",63.1
501,398,"CCCn1ccc2ncnc(Nc3ccc(F)cc3OC(C)C)c21 [Example 2, N-(4-fluoro-2-isopropoxy-phenyl)-5-propyl-pyrrolo[3,2-d]pyrimidin-4-amine]",158
15800,794,"CO[C@H]1CCCC[C@@H]1Oc1cc(F)ccc1Nc1ncnc2ccn(C)c12 [Example 37, N-[4-fluoro-2-[(1S,2S)-2-methoxycyclohexoxy]phenyl]-5-methyl-pyrrolo[3,2-d]pyrimidin-4-amine]",251
158,79.4,"CC(C)Oc1cc(Cl)ccc1Nc1ncnc2ccn(C)c12 [Example 9, N-(4-chloro-2-isopropoxy-phenyl)-5-methyl-pyrrolo[3,2-d]pyrimidin-4-amine]",79.4
10000,1260,"COc1ccc(Nc2ncnc3ccn(C)c23)c(OC(C)C)c1 [Example 10, N-(2-isopropoxy-4-methoxy-phenyl)-5-methyl-pyrrolo[3,2-d]pyrimidin-4-amine]",200
100,50.1,"C[C@@H](CF)Oc1cc(F)ccc1Nc1ncnc2ccn(C)c12 [Example 22, N-[4-fluoro-2-[(1S)-2-fluoro-1-methyl-ethoxy]phenyl]-5-methyl-pyrrolo[3,2-d]pyrimidin-4-amine]",15.8
126,39.8,"C[C@H](CF)Oc1cc(F)ccc1Nc1ncnc2ccn(C)c12 [Example 23, N-[4-fluoro-2-[(1R)-2-fluoro-1-methyl-ethoxy]phenyl]-5-methyl-pyrrolo[3,2-d]pyrimidin-4-amine]",15.8
398,158,"Cn1ccc2ncnc(Nc3ccc(F)cc3O[C@H]3CCOC3)c21 [Example 15, N-[4-fluoro-2-[(3S)-tetrahydrofuran-3-yl]oxy-phenyl]-5-methyl-pyrrolo[3,2-d]pyrimidin-4-amine]",31.6
794,251,"Cn1ccc2ncnc(Nc3ccc(F)cc3O[C@H]3CCCC[C@@H]3O)c21 [Example 36, (1S,2S)-2-[5-fluoro-2-[(5-methylpyrrolo[3,2-d]pyrimidin-4-yl)amino]phenoxy]cyclohexanol]",39.8
3160,2000,"COCCn1ccc2ncnc(Nc3ccc(F)cc3OC(C)C)c21 [Example 5, N-(4-fluoro-2-isopropoxy-phenyl)-5-(2-methoxyethyl)pyrrolo[3,2-d]pyrimidin-4-amine]",1000
2000,316,"CO[C@@H]1CCCC[C@H]1Oc1cc(F)ccc1Nc1ncnc2ccn(C)c12 [Example 38, N-[4-fluoro-2-[(1R,2R)-2-methoxycyclohexoxy]phenyl]-5-methyl-pyrrolo[3,2-d]pyrimidin-4-amine]",39.8
158,79.4,"CO[C@@H]1CCC[C@H](Oc2cc(F)ccc2Nc2ncnc3ccn(C)c23)C1 [Example 21, N-[4-fluoro-2-[(1S,3R)-3-methoxycyclohexoxy]phenyl]-5-methyl-pyrrolo[3,2-d]pyrimidin-4-amine]",25.1
2000,1260,"CC(C)Oc1cc(F)ccc1Nc1ncnc2ccn(CCO)c12 [Example 4, 2-[4-(4-Fluoro-2-isopropoxy-anilino)pyrrolo[3,2-d]pyrimidin-5-yl]ethanol]",251
